In patent US9845322B2 (Hoffmann-La Roche Inc., priority 2016, dated 2017):
Like-named read-outs stand apart in the source and are kept apart here.

Test system: HBsAg secretion in HepG2.2.15 cells
Experiment: HBsAg assay (chemiluminescence immunoassay of secreted HBsAg in culture supernatant)
Type: cell-based, HBV
Details: concentration at which HBsAg secretion was reduced by 50% compared to the no drug control, read-out: IC50 (HBsAg assay)
Procedure: HepG2.2.15 cells (Acs et al. Proc Natl Acad Sci USA, 84, (1987), 4641-4), a constitutively HBV-expressing cell line were cultured in DMEM+Glutamax-I medium (Invitrogen, Carlsbad, Calif., USA), supplemented with 10% fetal bovine serum (Invitrogen) and G418 (Invitrogen) at a final concentration of 200 mg/L and maintained in 5% CO2 at 37° C.
HepG2.2.15 cells were seeded in duplicate into white, 96-well plates at 1.5×10^4 cells/well. The cells were treated with a three-fold serial dilution series of the compounds in DMSO. The final DMSO concentration in all wells was 1% and DMSO was used as no drug control.
The HBsAg chemiluminescence immunoassay (CLIA) kit (Autobio Diagnostics Co., Zhengzhou, China, Catalog number: CL0310-2) was used to measure the levels of secreted HBV antigens semi-quantitatively. For the detection 50 μL/well culture supernatant was used and HBsAg was quantified using HBsAg chemiluminescence immunoassay (CLIA) kit (Autobio Diagnostics Co., Zhengzhou, China, Catalog number: CL0310-2), 50 μL of the supernatant was transferred to the CLIA assay plate and 50 μL of enzyme conjugate reagent was added into each well. The plates were sealed and gently agitated for 1 hour at room temperature. The supernatant-enzyme-mixture was discarded and wells were washed 6 times with 300 μL of PBS. The residual liquid was removed by plating the CLIA plate […] on absorbent tissue paper. 25 μL of substrates A and B were added to each well. Luminance was measured using a luminometer (Mithras LB 940 Multimode Microplate Reader) after 10 minutes incubation. Dose-response curves were generated and the IC50 value was extrapolated by using the E-WorkBook Suite (ID Business Solutions Ltd., Guildford, UK). The IC50 was defined as the compound concentration (or conditioned media log dilution) at which HBsAg secretion was reduced by 50% compared to the no drug control.
The compounds according to formula I were tested for their capacity to inhibit HBsAg as described herein.

[1] = Hepatitis B virus, HepG2.2.15, HepG2.2.15 cells

Row | Structure (SMILES) | IC50 (HepG2.2.15 cells) [nM] | IC50 [1] [nM]
1 | COCCOc1cc(N2CCc3nc(-c4ccccn4)ncc3C2C)cc(F)c1F (single isomer, unassigned; (+)) [Example 20, (+)-6-[3,4-difluoro-5-(2-methoxyethoxy)phenyl]-5-methyl-2-(2-pyridyl)-7,8-dihydro-5H-pyrido[4,3-d]pyrimidine] | 5010 | –
2 | CCCC1c2cnc(-c3ccccn3)nc2CCN1c1cc(F)c(F)c(OC)c1 (single isomer, unassigned; (-)) [Example 14, (−)-6-(3,4-difluoro-5-methoxy-phenyl)-5-propyl-2-(2-pyridyl)-7,8-dihydro-5H-pyrido[4,3-d]pyrimidine] | 2970 | –
3 | COc1cc(N2CCc3nc(-c4ncccn4)ncc3C2C)c(Cl)c(F)c1Cl (single isomer, unassigned; (+)) [Example 125, (+)-6-(2,4-dichloro-3-fluoro-5-methoxy-phenyl)-5-methyl-2-pyrimidin-2-yl-7,8-dihydro-5H-pyrido[4,3-d]pyrimidine] | – | 1120
4 | COC(=O)C(CCOc1cc(N2CCc3nc(-c4ncccn4)ncc3C2C)cc(F)c1F)NC(=O)OC(C)(C)C (centres unmarked) [Example 102, methyl 2-(tert-butoxycarbonylamino)-4-[2,3-difluoro-5-(5-methyl-2-pyrimidin-2-yl-7,8-dihydro-5H-pyrido[4,3-d]pyrimidin-6-yl)phenoxy]butanoate] | – | 249
5 | COc1cc(N2CCc3nc(-c4ncccn4)ncc3C2C)cc(F)c1Cl (centres unmarked) [Example 40, 6-(4-chloro-3-fluoro-5-methoxy-phenyl)-5-methyl-2-pyrimidin-2-yl-7,8-dihydro-5H-pyrido[4,3-d]pyrimidine] | – | 4860
6 | CC1c2cnc(-c3ncccn3)nc2CCN1c1cc(F)c(F)c(OCCCNS(=O)(=O)C2CC2)c1 (centres unmarked) [Example 93, N-[3-[2,3-difluoro-5-(5-methyl-2-pyrimidin-2-yl-7,8-dihydro-5H-pyrido[4,3-d]pyrimidin-6-yl)phenoxy]propyl]cyclopropanesulfonamide] | – | 61
7 | CC1c2cnc(-c3ccccn3)nc2CCN1c1cc(F)c(F)c(OCCCN)c1 (centres unmarked) [Example 34, 3-[2,3-difluoro-5-[5-methyl-2-(2-pyridyl)-7,8-dihydro-5H-pyrido[4,3-d]pyrimidin-6-yl]phenoxy]propan-1-amine] | – | 1710
8 | CNC(=O)CCCOc1cc(N2CCc3nc(-c4ncccn4)ncc3C2C)cc(F)c1F (centres unmarked) [Example 53, 4-[2,3-difluoro-5-(5-methyl-2-pyrimidin-2-yl-7,8-dihydro-5H-pyrido[4,3-d]pyrimidin-6-yl)phenoxy]-N-methyl-butanamide] | – | 103
9 | COc1cc(N2CCc3nc(-c4ncccn4)ncc3C2C)cc(C(F)(F)F)c1 (centres unmarked) [Example 112, 6-[3-methoxy-5-(trifluoromethyl)phenyl]-5-methyl-2-pyrimidin-2-yl-7,8-dihydro-5H-pyrido[4,3-d]pyrimidine] | – | 84
10 | COc1cc(F)nc(N2CCc3nc(-c4ncccn4)ncc3C2C)c1 (centres unmarked) [Example 127, 6-(6-Fluoro-4-methoxy-2-pyridyl)-5-methyl-2-pyrimidin-2-yl-7,8-dihydro-5H-pyrido[4,3-d]pyrimidine] | 24 | –
11 | CC1c2cnc(-c3ncccn3)nc2CCN1c1cc(F)c(F)c(OCC2CCOC2)c1 (centres unmarked) [Example 75, 6-[3,4-difluoro-5-(tetrahydrofuran-3-ylmethoxy)phenyl]-5-methyl-2-pyrimidin-2-yl-7,8-dihydro-5H-pyrido[4,3-d]pyrimidine] | – | 21
12 | COc1cc(Cl)nc(N2CCc3nc(-c4ncccn4)ncc3C2C)c1 (centres unmarked) [Example 126] | – | 8
13 | Cc1cc(N(C)C)nc(N2CCc3nc(-c4ncccn4)ncc3[C@H]2C)n1 [Example 213, (−)-N,N,6-trimethyl-2-[5-methyl-2-pyrimidin-2-yl-7,8-dihydro-5H-pyrido[4,3-d]pyrimidin-6-yl]pyrimidin-4-amine] | – | 65
14 | COCCCN(C)C(=O)c1cc(F)cc(N2CCc3nc(-c4ncccn4)ncc3C2C)c1 (centres unmarked) [Example 178, 3-fluoro-N-(3-methoxypropyl)-N-methyl-5-(5-methyl-2-pyrimidin-2-yl-7,8-dihydro-5H-pyrido[4,3-d]pyrimidin-6-yl)benzamide] | – | 123
15 | CC1c2cnc(-c3ncccn3)nc2CCN1c1cc(F)c(F)c(OCCC2CN(C(=O)OC(C)(C)C)C2)c1 (centres unmarked) [Example 115, tert-butyl 3-[2-[2,3-difluoro-5-(5-methyl-2-pyrimidin-2-yl-7,8-dihydro-5H-pyrido[4,3-d]pyrimidin-6-yl)phenoxy]ethyl]azetidine-1-carboxylate] | – | 12
16 | CC1c2cnc(-c3ncccn3)nc2CCN1c1cc(F)c(F)c(OCCCN)c1 (centres unmarked) [Example 91, 3-[2,3-difluoro-5-(5-methyl-2-pyrimidin-2-yl-7,8-dihydro-5H-pyrido[4,3-d]pyrimidin-6-yl)phenoxy]propan-1-amine] | – | 483
17 | CC1c2cnc(-c3ccccn3)nc2CCN1c1cc(F)cc(N2CCOCC2)n1 (centres unmarked) [Example 221, 4-[4-fluoro-6-[5-methyl-2-(2-pyridyl)-7,8-dihydro-5H-pyrido[4,3-d]pyrimidin-6-yl]-2-pyridyl]morpholine] | – | 34
18 | CC1c2cnc(-c3ccccn3)nc2CCN1c1cc(OCCCCCCC(N)=O)cc(F)n1 (centres unmarked) [Example 180, 7-[[2-fluoro-6-[5-methyl-2-(2-pyridyl)-7,8-dihydro-5H-pyrido[4,3-d]pyrimidin-6-yl]-4-pyridyl]oxy]heptanamide] | – | 27
19 | CC1c2cnc(-c3ncccn3)nc2CCN1c1cc(OCCCN2CCOCC2=O)cc(F)n1 (single isomer, unassigned; (-)) [Example 181, (−)-4-[3-[[2-fluoro-6-[5-methyl-2-pyrimidin-2-yl-7,8-dihydro-5H-pyrido[4,3-d]pyrimidin-6-yl]-4-pyridyl]oxy]propyl]morpholin-3-one] | – | 12
20 | CC1c2cnc(-c3ncccn3)nc2CCN1c1cc(F)c(F)c(OCC(=O)N2CCOCC2)c1 (centres unmarked) [Example 84, 2-[2,3-difluoro-5-(5-methyl-2-pyrimidin-2-yl-7,8-dihydro-5H-pyrido[4,3-d]pyrimidin-6-yl)phenoxy]-1-morpholino-ethanone] | – | 266
21 | COc1cc(N2CCc3nc(-c4ccccn4)ncc3C2C)cc(F)c1F (single isomer, unassigned; (-)) [Example 7, (−)-6-(3,4-difluoro-5-methoxy-phenyl)-5-methyl-2-(2-pyridyl)-7,8-dihydro-5H-pyrido[4,3-d]pyrimidine] | 12 | –
22 | COc1cc(Cl)cc(N2CCc3nc(-c4ncccn4)ncc3C2C)n1 (centres unmarked) [Example 140, 6-(4-chloro-6-methoxy-2-pyridyl)-5-methyl-2-pyrimidin-2-yl-7,8-dihydro-5H-pyrido[4,3-d]pyrimidine] | – | 24
23 | CC1c2cnc(-c3ncccn3)nc2CCN1c1cc(F)cc(N2CCNC(=O)C2)n1 (single isomer, unassigned; (-)) [Example 225, (−)-4-[4-fluoro-6-(5-methyl-2-pyrimidin-2-yl-7,8-dihydro-5H-pyrido[4,3-d]pyrimidin-6-yl)-2-pyridyl]piperazin-2-one] | 13 | –
24 | COc1cc(N2CCc3nc(-c4ccccn4)ncc3C2C)cc(F)c1F (single isomer, unassigned; (+)) [Example 6, (+)-6-(3,4-difluoro-5-methoxy-phenyl)-5-methyl-2-(2-pyridyl)-7,8-dihydro-5H-pyrido[4,3-d]pyrimidine] | 8070 | –
25 | COC(=O)C(C(=O)OC)C1c2cnc(-c3ccccn3)nc2CCN1c1ccc(S(C)(=O)=O)cc1 (centres unmarked) [Example 8] | – | 19600
26 | CC1c2cnc(-c3ncccn3)nc2CCN1c1cc(OCCCC(N)=O)cc(F)n1 (single isomer, unassigned; (-)) [Example 185, (−)-4-[[2-fluoro-6-[5-methyl-2-pyrimidin-2-yl-7,8-dihydro-5H-pyrido[4,3-d]pyrimidin-6-yl]-4-pyridyl]oxy]butanamide] | – | 14
27 | CC1c2cnc(-c3ncccn3)nc2CCN1c1cc(F)c(F)c(OCCCN2CCN(C(=O)OC(C)(C)C)CC2)c1 (centres unmarked) [Example 108, tert-butyl 4-[3-[2,3-difluoro-5-(5-methyl-2-pyrimidin-2-yl-7,8-dihydro-5H-pyrido[4,3-d]pyrimidin-6-yl)phenoxy]propyl]piperazine-1-carboxylate] | – | 84
28 | CC1c2cnc(-c3ncccn3)nc2CCN1c1cc(F)c(F)c(OCC(=O)O)c1 (centres unmarked) [Example 65, 2-[2,3-difluoro-5-(5-methyl-2-pyrimidin-2-yl-7,8-dihydro-5H-pyrido[4,3-d]pyrimidin-6-yl)phenoxy]acetic acid] | – | 16700
29 | CC1c2cnc(-c3ccccn3)nc2CCN1c1cc(F)c(F)c(OCCCS(C)(=O)=O)c1 (centres unmarked) [Example 33, 6-[3,4-difluoro-5-(3-methylsulfonylpropoxy)phenyl]-5-methyl-2-(2-pyridyl)-7,8-dihydro-5H-pyrido[4,3-d]pyrimidine] | – | 48
